According to paper PMC11940195, “Characterization of a GH43 Bifunctional Glycosidase from Endophytic Chaetomium globosum and Its Potential Application in the Biotransformation of Ginsenosides” (BioTech, 2025):

Tested on: T1, Xyaf313
T1 construct: gene of 1380 bp, 460 aa, about 50 kDa theoretical; C-terminal His6; codon-optimized, pPIC9K, secreted from Pichia pastoris GS115, Ni-NTA
Experiment: p-nitrophenol release, Michaelis-Menten nonlinear fit
Assay type: biochemical, Chaetomium globosum
Settings: pH 7, 50 °C (optimal conditions); substrate 0.5-5.0 mM
Source text: p-nitrophenol release, Michaelis-Menten nonlinear fit on Xyaf313

Structure (SMILES) | Km
O=[N+]([O-])c1ccc(O[C@@H]2OC[C@@H](O)[C@H](O)[C@H]2O)cc1 [ρ-nitrophenyl β-D-xylopyranoside] | 1.77 ± 1.27 mM
O=[N+]([O-])c1ccc(O[C@@H]2O[C@@H](CO)[C@H](O)[C@H]2O)cc1 [4-nitrophenyl α-L-arabinofuranoside] | 5.65 ± 1.67 mM
